Where no end group is shown, it is not given here.
Key:
FLS2 (FLS2-ECD) = test: Yeast two-hybrid with FLS2-ECD; format: binding, Arabidopsis thaliana; settings: yeast AH109, medium lacking Leu, Trp, His
From the text: Fig 6 AtRALF1 interacts physically with BAK1 protein. (A) The active AtRALF1 peptide interacts with the extracellular domain (ECD) of BAK1 (BAK1-ECD) in yeast. The AtRALF1 protein fused to the GAL4 DNA-binding domain (AtRALF1-pGBKT7) was used as bait to test its interaction with the extracellular domain of the proteins fused to the GAL4 activation domain (pGADT7): BAK1 (BAK1-ECD), BAK7 (BAK7-ECD), BRI1 (BRI1-ECD) and FLS2 (FLS2-ECD). (B) Blueprint showing the truncated proteins from the extracellular domain of BAK1 tested in the two-hybrid assay. The extracellular domain of BAK1 comprises leucine zippers (LZ), 5 leucine rich-regions (LRRs) and a proline-rich region (pro-rich). (C) AtRALF1-pGBKT7 was used as bait to test its interaction with truncated proteins fused to the GAL4 activation domain (pGADT7). […] HA-BAK1-ECD was detected with an anti-HA antibody. AtRALF1 was detected with an anti-RALF antibody. […] BAK1-GFP was detected with an anti-GFP antibody. […]
The coding regions of the mature peptides AtRALF1 and AtRALF34 were amplified from Arabidopsis genomic DNA and fused to the GAL4 DNA-binding domain and the MYC epitope tag using the NdeI/BamHI sites in the pGBKT7 (Clontech) vector. […] The proteins fused to the HA and MYC epitope tags were detected by protein blotting. […]

[1] = system: intact Arabidopsis seedlings; test: Binding assay with acridinium-labeled AtRALF34, intact seedlings; parameters: species or system Arabidopsis thaliana; settings: 10-fold excess of unlabeled AtRALF1
Method: Arabidopsis seedlings were grown for 5 days on vertical plates. Roots were homogenized in extraction buffer [300 mM sucrose, 100 mM Tris-HCl pH 7.5, 25 mM EDTA, 25 mM NaF, 1 mM Na2MoO4, 1 mM PMSF and protease inhibitor cocktail (Roche), adjusted to pH 6.2], and the homogenate was spun at 2,000 x g for 10 min at 4 °C. The supernatant was recovered and centrifuged at 100,000 x g for 50 min at 4 °C to precipitate the microsomal pellet. The pellet was resuspended in the extraction buffer plus 0.5% Triton-X. Seedlings or microsomal fractions were placed in 200 μl of medium and incubated with 7 nM acridinium-labeled peptide (acriAtRALF1 or acriAtRALF34) and different concentrations of AtRALF1, AtRALF34 or RALF1(9–49) for 15–20 min at 4 °C on a shaker. After incubation, the seedlings or microsomal fractions were washed three times with the same medium. Unless indicated otherwise, five entire seedlings and approximately 10 ng of microsomal fractions were used per treatment. The resulting luminescence emissions from the acridinium were measured using a microplate reader (Biotec ELx 800) at 2 s after injecting 50 μl of a solution containing 20 mM H2O2 in 0.1 M NaOH. These experiments were repeated at least three times using independent biological replicates. Duplicates were used for each concentration or treatment. The data shown are from one representative experiment. […]

In the case of “AtRALF1: root-specific RALF isoform in Arabidopsis; recombinant peptide hormone produced in E. coli (ATTKYISYQSLKRNSVPCSRRGASYYNCQNGAQANPYSRGCSKIARCRS; ends and bridges not checked; cysteine pairing not given here)”, the “interaction with FLS2-ECD (Y2H complementation)” value (FLS2 (FLS2-ECD)) was “able to complement only the BAK1-ECD construct” and the “effect of unlabeled AtRALF1 on total acriAtRALF34 binding” value [1] was “did not alter the total binding”.

Source: article PMC5656322, “BAK1 is involved in AtRALF1-induced inhibition of root cell expansion” (PLoS Genetics, 2017)
